{
  "source": "patent US6867186B2",
  "about": "“Cell-permeable protein inhibitors of calpain” (New England Medical Center Hospital, priority 1997, dated 2005)",
  "key": {"[1]": {"system": "platelet rich plasma (PRP)", "assay": "Platelet disk-to-sphere shape change after cold storage (ESC assay)", "assay_type": "cell-based", "design": "cold storage of PRP, extent of shape change (ESC): dose or concentration left out as unconfirmed", "experimental": "Disk-to-sphere shape change was then assayed using the extent of shape change (ESC) assay (Holme et al., Transfusion 38:31-40, 1998). Briefly, samples of stored PRP were treated to induce disk-to-sphere shape change by cold storage and the addition of EDTA (to prevent aggregation). ADP was then added as a stimulus to measure ESC, and shape change was measured by determining light transmission through the sample. If the initial storage conditions caused considerable disk-to-sphere shape change, there would be little additional shape change upon addition of EDTA and ADP. Conversely, if the initial storage conditions caused little disk-to-sphere shape change, there would be considerable additional shape change upon addition of EDTA and ADP. The results of three experiments in which 24 hour storage of platelets at 4° C. was tested, in the presence and absence of calpastat, are shown in FIG. 12. The bracket labelled “fresh CDP” indicates the ESC that can be expected for fresh PRP in CPD, and the bracket marked “cold EDTA-treated PRP” indicates the ESC that can be expected for PRP subjected to cold storage in EDTA.\nThe day O control is an assay performed on fresh PRP with no cold storage in standard buffer."}, "U937 cells": {"system": "U937 cells", "assay": "Chemokine production of thapsigargin-stimulated U937 cells", "assay_type": "cell-based", "conditions": "5 nM calpastat", "experimental": "peptides can inhibit chemokine production in vitro. The effect of […] on chemokine production was tested as follows. […] The chemokines (MIP-1α, MIP-1P and RANTES) in the supernatants of U937 cells were assayed using QuantikineTM kits and as described by R&D Systems (Minneapolis, Minn.). […] Thus, […] be used to reduce production of inflammatory cytokines and treat inflammatory disorders."}, "HIV-1": {"system": "HIV-1", "experimental": "U1 is a human promonocytic cell line that is chronically infected with HIV-1 and that constitutively expresses low levels of HIV-1. […] In the present experiment, 1×10^6 cells/ml were treated with various dosages of calpastat and incubated for one hour at 37° C. After incubation, various concentrations of Tpg were added to the calpastat-treated cells and aliquoted into a 24-well plate. To observe the stimulation of HIV-1 activity by Tpg, equivalent numbers of cells were treated with Tpg alone. The cells were then incubated at 37° C. for up to four days, and supernatants from the cell culture were collected each day to measure HIV-1 activity. The viability of cells treated with both Tpg and calpastat were determined each day by Trypan-blue exclusion test. The HIV-1 activity in the collected supernatants was determined by measuring the HIV-1 p24 core antigen protein by ELISA (Dupont Medical Products, Boston, Mass.) according to the manufacturer's instructions.\nIn another series of experiments, U1 cells, which are latently infected with HIV-1 provirus, were plated at 10^6 cells/well in 1 ml of medium and treated with varying concentrations of either calpastat (FIG. 7E) or calpeptin (benzyloxycarbonyl-leucyl-norleucinal) (FIG. 7F) for 45 minutes before addition of thapsigargin (4 nM final concentration). […] After 48 hours of stimulation, HIV-1 p24 antigen levels were determined in 200 μl of tissue culture supernatant, using a p24 ELISA (DuPont). All assays were performed on triplicate cultures."}},
  "note": "Where two headings read alike, the source gives them in different places.",
  "data": [
    {"substance": "H-AAVALLPAVLLALLAPEKLGERDDTIPPEYRELLEKKTGV-OH [Calpastat]", "values": [
      {"measurement": "cold storage of PRP, extent of shape change (ESC)", "setting": "[1]; about 24 hours at 4° C., compared to EDTA", "result": "significantly improved cold storage"},
      {"measurement": "protection against disk-to-sphere shape change", "setting": "[1]; five days at 4° C.", "result": "considerable protection"},
      {"measurement": "reduction of production of chemokines (MIP-1α, MIP-1P and RANTES)", "setting": "U937 cells", "result": "about one third"},
      {"measurement": "decrease of mean fold viral production", "setting": "HIV-1; 5 μM, 24 hours of Tpg stimulation", "result": 47, "unit": "%"},
      {"measurement": "decrease of mean fold viral production", "setting": "HIV-1; 5 μM, 46 hours of Tpg stimulation", "result": 44, "unit": "%"},
      {"measurement": "decrease of mean fold viral production", "setting": "HIV-1; 5 μM, 72 hours of Tpg stimulation", "result": 55, "unit": "%"},
      {"measurement": "decrease of mean fold viral production", "setting": "HIV-1; 5 μM, 96 hours of Tpg stimulation", "result": 61, "unit": "%"},
      {"measurement": "inhibition of HIV-1 release from infected cells", "setting": "HIV-1; 5 μM, overall", "result": "about 50%"},
      {"measurement": "IC50", "setting": "HIV-1; read-out: IC50, inhibition of HIV-1 replication, FIG. 7E, U1 cells, thapsigargin 4 nM, 48 hours", "result": 50, "unit": "nM"}
    ]}
  ]
}
